Like-named read-outs stand apart in the source and are kept apart here.
Assays:
[1] = GI S9 stability (Ex. Z), rat intestinal S9; assay type: in vitro ADME; conditions: rat intestinal S9, 1.0 mg/mL protein, 2 μM substrate, pH 7.4, read-out: GIS9 Rat T½ (per Ex. Z)
Method: Example Z: GI S9 stability data:
Stock solutions of test compounds in dimethyl sulfoxide (DMSO) having a final concentration of 10 mM were prepared and used in all experiments. Sekisui XenoTech (Kansas City, KS) provided pooled intestinal S9 fractions. All other chemicals were purchased from Sigma-Aldrich (St. Louis, MO) or VWR (West Chester, PA). Internal Standard/Quench (IS/Q) used to stop reactions was 100 nM labetalol in (by volume) methanol (10%) and acetonitrile (90%).
Stability in Intestinal S9 Fractions: Duplicate aliquots of test compound or positive control substrate were added to S9 stock diluted with phosphate buffered saline (137 mM NaCl, 2.7 mM KCl, 10 mM phosphate buffer), pH 7.4, to obtain a protein concentration of 1.0 mg/mL. The metabolic reactions were initiated by the addition of the substrates to the S9 reaction mixture to a final concentration of 2 μM. At 0, 10, 20, 30, 60 and 120 min, 25 μL aliquots of the reaction mixture were transferred to plates containing 225 μl of IS/Q solution. After quenching, the plates were centrifuged at 3000×g for 30 minutes. 150 μL aliquots of each supernatant were dried down then reconstituted with 300 μL water. Aliquots (10 μL) of the prepared samples were analyzed on a Thermo Q-Exactive mass spectrometer as described below.
Liquid Chromatography—Mass Spectrometry: Quantification of test compounds and control substrate was performed by analyte/internal standard peak area ratio (PAR) values measured on a Thermo Q-Exactive mass spectrometer coupled to a Dionex UltiMate 3000 HPLC with a Leap Technologies HTC PAL autosampler. The column used for analysis was a Waters Acquity BEH C18 (1.7 μm particle size, 2.1×50 mm). Mobile phase A consisted of 0.1% (v/v) formic acid in water. Mobile phase B consisted of 0.1% (v/v) formic acid in acetonitrile. Elution of analytes was achieved by a series of linear gradients varying the proportions of A and B. The mass spectrometer was calibrated on a weekly basis and mass tolerance of 5 ppm was used.
Metabolic stabilities in S9 fractions were determined by measuring the rates of disappearance of test compound and positive control substrate.
Data (% of substrate remaining) were plotted on a semi-log scale and fitted using an exponential decline model:
Where Ct—% of substrate remaining at time=t; C0—% of substrate remaining at time=0; t—time; T½—half-life The Half-life (T½) is determined by the following equation: […]
Assuming a first-order reaction, the slope (k) is extrapolated from the aforementioned plotted data.

[2] = test system: Respiratory syncytial virus recombinant with luciferase (RSV-Luc5) in HEp-2 cells; assay: HEp-2 RSV-Luc5 384-well Assay (EC50 RSVFLUC Hep2-384 v2, Ex. V); assay type: cell-based; conditions: human respiratory syncytial virus, HEp-2, 72 h, read-out: EC50 RSV FLuc Hep-2 384 V2 (per Ex. V)
Excerpt: Example V: HEp-2 RSV-Luc5 384-well Assay (EC50 RSVFLUC Hep2-384 v2)
HEp-2 cell line was purchased from ATCC (Manassas, VA Cat #CCL-23) and maintained in Dulbecco's […] (DMEM) (Corning, New York, NY, Cat #15-018CM) supplemented with 10% fetal bovine serum (FBS) (Hyclone, Logan, UT, Cat #SH30071-03) and 1× Penicillin-Streptonycin-L-Glutamine (Corning, New York, NY, Cat #30-009-CI). Cells were passaged 2 times per week to maintain sub-confluent densities and were used for experiments at passage 5-20. Respiratory syncytial virus recombinant with luciferase (RSV-Luc5) (≥1 ×107 TCID50/ml) was purchased from Microbiologics (Saint Cloud, MN). Viral replication was determined in HEp-2 cells in the following manner.
Compounds are prepared in 100% DMSO in 384-well polypropylene plates (Greiner, Monroe, NC, Cat #784201) with 8 compounds per plate in grouped replicates of 4 at 10 serially diluted concentrations (1:3). The serially diluted compounds were transferred to low dead volume Echo plates (Labcyte, Sunnyvale, CA, Cat #LP-0200).
The test compounds were spotted to 384-well assay plates (Greiner, Monroe, NC, Cat#781091) at 200 nL per well. HEp-2 cells were harvested and suspended in DMEM (supplemented with 10% FBS and 1× Penicillin-Streptonycin-L-Glutamine) and seeded to the pre-spotted assay plates at 4,000 cells per well in 30 μL. RSV-Luc5 viruses were diluted in DMEM (supplemented with 10% FBS and 1× Penicillin-Streptomycin-L-Glutamine) at 200,000 Infectious Units (IU) per mL and 10 μL per well was added to the assay plates containing cells and compounds, for an MOI=0.5. The assay plates were incubated for 3 days at 37° C. and 5% CO2. At the end of incubation, One-Glo reagent (Promega, Madison, WI, Cat #E6120) was prepared. The assay plates and One-Glo reagent were equilibrated to room temperature for at least 15 minutes. 40 μL per well of One-Glo reagent was added and the plates were incubated at room temp for 15 minutes before reading the luminescence signal on an EnVision multimode plate reader (Perkin Elmer, Waltham, MA). Remdesivir was used as positive control and DMSO was used as negative control. Values were normalized to the positive and negative controls (as 0% and 100% replication, respectively) and data was fitted using non-linear regression analysis by Gilead's dose response tool. The EC50 value for each compound was then determined as the concentration reducing the viral replication by 50%.

## N#C[C@]1(COC(=O)Cc2ccccc2)O[C@@H](c2ccc3c(N)ncnn23)[C@H](O)[C@@H]1O [Compound 38, ((2R,3S,4R,5S)-5-(4-aminopyrrolo[2,1-f][1,2,4]triazin-7-yl)-2-cyano-3,4-dihydroxytetrahydrofuran-2-yl)methyl 2-phenylacetate]
[1]
  half-life at 2 μM: 12 min
[2]
  EC50: 18.9 µM

## N#C[C@]1(COC(=O)[C@H]2CCC(=O)O2)O[C@@H](c2ccc3c(N)ncnn23)[C@H](O)[C@@H]1O [Compound 25, ((2R,3S,4R,5S)-5-(4-aminopyrrolo[2,1-f][1,2,4]triazin-7-yl)-2-cyano-3,4-dihydroxytetrahydrofuran-2-yl)methyl (R)-5-oxotetrahydrofuran-2-carboxylate]
[1]; pooled intestinal S9 fractions
  half-life at 2 μM: 5 min
[2]
  EC50: 10.3 µM

## CC1(C(=O)OC[C@@]2(C#N)O[C@@H](c3ccc4c(N)ncnn34)[C@H](O)[C@@H]2O)CCC1 [Compound 24, ((2R,3S,4R,5S)-5-(4-aminopyrrolo[2,1-f][1,2,4]triazin-7-yl)-2-cyano-3,4-dihydroxytetrahydrofuran-2-yl)methyl 1-methylcyclobutane-1-carboxylate]
[2]
  EC50: 12 µM

## CC(=O)OC[C@@]1(C#N)O[C@@H](c2ccc3c(NC(=O)C(C)C)ncnn23)[C@H](O)[C@@H]1O [Compound 23, ((2R,3S,4R,5S)-2-cyano-3,4-dihydroxy-5-(4-isobutyramidopyrrolo[2,1-f][1,2,4]triazin-7-yl)tetrahydrofuran-2-yl)methyl acetate]
[2]
  EC50: 33.1 µM

## CC(C)(CF)C(=O)OC[C@@]1(C#N)O[C@@H](c2ccc3c(N)ncnn23)[C@H](O)[C@@H]1O [Compound 29, ((2R,3S,4R,5S)-5-(4-aminopyrrolo[2,1-f][1,2,4]triazin-7-yl)-2-cyano-3,4-dihydroxytetrahydrofuran-2-yl)methyl 3-fluoro-2,2-dimethylpropanoate]
[2]
  EC50: 28.8 µM

## CC[C@@H](C)C(=O)OC[C@@]1(C#N)O[C@@H](c2ccc3c(N)ncnn23)[C@H](O)[C@@H]1O [Compound 37, ((2R,3S,4R,5S)-5-(4-aminopyrrolo[2,1-f][1,2,4]triazin-7-yl)-2-cyano-3,4-dihydroxytetrahydrofuran-2-yl)methyl (R)-2-methylbutanoate]
[2]
  EC50: 14.8 µM

## CC(C)(C)CCC(=O)OC[C@@]1(C#N)O[C@@H](c2ccc3c(N)ncnn23)[C@H](O)[C@@H]1O [Compound 36, ((2R,3S,4R,5S)-5-(4-aminopyrrolo[2,1-f][1,2,4]triazin-7-yl)-2-cyano-3,4-dihydroxytetrahydrofuran-2-yl)methyl 4,4-dimethylpentanoate]
[1]; pooled intestinal S9 fractions
  half-life at 2 μM: 3 min
[2]
  EC50: 11.8 µM

## N#C[C@]1(COC(=O)C2CC3(CCC3)C2)O[C@@H](c2ccc3c(N)ncnn23)[C@H](O)[C@@H]1O [Compound 32, ((2R,3S,4R,5S)-5-(4-aminopyrrolo[2,1-f][1,2,4]triazin-7-yl)-2-cyano-3,4-dihydroxytetrahydrofuran-2-yl)methyl spiro[3.3]heptane-2-carboxylate]
[1]; pooled intestinal S9 fractions
  half-life at 2 μM: 2 min
[2]
  EC50: 16.4 µM

## CC(C)C(=O)O[C@H]1[C@H](c2ccc3c(N)ncnn23)O[C@](C#N)(COC(=O)c2ccccc2)[C@H]1O [Compound 22, ((2R,3S,4R,5S)-5-(4-aminopyrrolo[2,1-f][1,2,4]triazin-7-yl)-2-cyano-3-hydroxy-4-(isobutyryloxy)tetrahydrofuran-2-yl)methyl benzoate]
[2]
  EC50: 32.1 µM

## CC(=O)OC[C@@]1(C#N)O[C@@H](c2ccc3c(N)ncnn23)[C@H](OC(C)=O)[C@@H]1OC(C)=O [Compound 28, (2R,3S,4S,5S)-2-(acetoxymethyl)-5-(4-aminopyrrolo[2,1-f][1,2,4]triazin-7-yl)-2-cyanotetrahydrofuran-3,4-diyl diacetate]
[1]; pooled intestinal S9 fractions
  half-life at 2 μM: 5 min
[2]
  EC50: 15.9 µM

## CCC(C)(C)CC(=O)OC[C@@]1(C#N)O[C@@H](c2ccc3c(N)ncnn23)[C@H](O)[C@@H]1O [Compound 27, ((2R,3S,4R,5S)-5-(4-aminopyrrolo[2,1-f][1,2,4]triazin-7-yl)-2-cyano-3,4-dihydroxytetrahydrofuran-2-yl)methyl 3,3-dimethylpentanoate]
[2]
  EC50: 12.3 µM

## [H]/N=c1/c2ccc([C@@H]3O[C@](C#N)(CO)[C@@H](O)[C@H]3O)n2ncn1COC(=O)C(C)C [Compound 34, (7-((2S,3R,4S,5R)-5-cyano-3,4-dihydroxy-5-(hydroxymethyl)tetrahydrofuran-2-yl)-4-iminopyrrolo[2,1-f][1,2,4]triazin-3(4H)-yl)methyl isobutyrate]
[2]
  EC50: > 50 µM

## CC(C)C(=O)Nc1ncnn2c([C@@H]3O[C@](C#N)(CO)[C@@H](O)[C@H]3O)ccc12 [Compound 30, N-(7-((2S,3R,4S,5R)-5-cyano-3,4-dihydroxy-5-(hydroxymethyl)tetrahydrofuran-2-yl)pyrrolo[2,1-f][1,2,4]triazin-4-yl)isobutyramide]
[1]; pooled intestinal S9 fractions
  half-life at 2 μM: 789 min
[2]
  EC50: > 50 µM

## CC(C)(C)CC(=O)Nc1ncnn2c([C@@H]3O[C@](C#N)(COC(=O)CC(C)(C)C)[C@@H](O)[C@H]3O)ccc12 [Compound 26, ((2R,3S,4R,5S)-2-cyano-5-(4-(3,3-dimethylbutanamido)pyrrolo[2,1-f][1,2,4]triazin-7-yl)-3,4-dihydroxytetrahydrofuran-2-yl)methyl 3,3-dimethylbutanoate]
[2]
  EC50: 46.8 µM

## CC1(CC(=O)OC[C@@]2(C#N)O[C@@H](c3ccc4c(N)ncnn34)[C@H](O)[C@@H]2O)CCC1 [Compound 33, ((2R,3S,4R,5S)-5-(4-aminopyrrolo[2,1-f][1,2,4]triazin-7-yl)-2-cyano-3,4-dihydroxytetrahydrofuran-2-yl)methyl 2-(1-methylcyclobutyl)acetate]
[1]; pooled intestinal S9 fractions
  half-life at 2 μM: 31 min
[2]
  EC50: 23.4 µM

## CCC(C)(C)C(=O)OC[C@@]1(C#N)O[C@@H](c2ccc3c(N)ncnn23)[C@H](O)[C@@H]1O [Compound 35, ((2R,3S,4R,5S)-5-(4-aminopyrrolo[2,1-f][1,2,4]triazin-7-yl)-2-cyano-3,4-dihydroxytetrahydrofuran-2-yl)methyl 2,2-dimethylbutanoate]
[1]; pooled intestinal S9 fractions
  half-life at 2 μM: 124 min
[2]
  EC50: 24.4 µM
